Test system: rats subjected to carrageenan insult to the right hind paw
Assay: Randall-Selitto paw pressure test, carrageenan-induced hyperalgesia in rats
Assay type: in vivo, rat
Details: naloxone 1 mg/kg s.c., with or without Alda-1; carrageenan rats
Protocol: Rats. Male Wistar rats (170-190 g) were provided by Charles River Laboratories or Butantan Institute Animal Facility and housed in a temperature-controlled (22±1° C.) and light-controlled (12/12 h light/dark cycle) room. All rats were housed in their surrounding for at least 3 days. Groups of 5-6 rats were used.
Drugs Used. 0.1 ml saline (control), carrageenan (200 μg for rats, 100 μg for mice; Marine Colloids), or prostaglandin E2 (100 ng, Sigma) was administered by intraplantar injection into the right hind paw to induce hyperalgesia. These doses were chosen based on previous studies by our laboratory groups (Aley K O, et al., (2000) Chronic hypersensitivity for inflammatory nociceptor sensitization mediated by the epsilon isozyme of protein kinase C. The Journal of neuroscience: the official journal of the Society for Neuroscience 20: 4680-4685; Konno K, et al., (2008) Crotalphine, a novel potent analgesic peptide from the venom of the South American rattlesnake Crotalus durissus terrificus. Peptides 29: 1293-1304).
Alda-1 dose (2 mg/kg/per injection, dissolved in 50% PEG/50% DMSO) was established in preliminary studies and given in multiple doses due to its estimated short half-life. Alda-1 was injected subcutaneously to the dorsal side of the neck 15 minutes before carrageenan or saline, and again at 30 and 150 minutes after carrageenan, prostaglandin E2 or saline injection. One subset of animals received Alda-1 only 30 and 150 minutes after carrageenan injection. Where indicated, naloxone (1 mg/kg per injection) or vehicle (saline) was given 10 minutes prior to each Alda-1 treatment to the dorsal side of the neck.
Nociception Assessment. The experimental performer was blinded to both genotype and/or treatments. Nociceptive response was assessed by the von Frey method for mice and the Randall-Selitto method for rats immediately before and 180 minutes after carrageenan or prostaglandin E2 injection. Both mice and rats were acclimated to the testing equipment one day before baseline testing.
Randall-Selitto method: Nociceptive threshold was determined using the Randall-Selitto paw pressure test (Ugo-Basile), as previously described (Gutierrez V P, et al., (2008) Crotalphine induces potent antinociception in neuropathic pain by acting at peripheral opioid receptors. European journal of pharmacology 594: 84-92). The baseline values varied between 65-75 g of force. Animals with baseline out of this range (about 10%) were excluded prior to initiating the study in order to achieve uniform testing.

For C=CCN1CC[C@]23c4c5ccc(O)c4O[C@H]2C(=O)CC[C@@]3(O)[C@H]1C5 [Naloxone, reference compound], the “Effect of naloxone on nociceptive threshold” value was “no effect”.

Reference: patent publication US9545393B2, “Methods and compositions for treating pain” (The Board of Trustees of the Leland Stanford Junior …, priority 2012, dated 2017)
